Experimental data reported in patent US10588313B1, “Compounds of fatty acids and ammonium fatty acid salts” (Falcon Lab, LLC, priority 2019, dated 2020).

Assays:
[1] = tested on: Streptococcus Group A; settings: even numbered fatty acids C8 to C18; cited from earlier work
[2] = tested on: Staphlycoccus aureous; settings: even numbered fatty acids C8 to C18; cited from earlier work
[3] = tested on: Candida albicans; settings: even numbered fatty acids C8 to C18; cited from earlier work
[4] = tested on: Staphylococcus aureus ATCC 6538; assay: ASTM International Method E2315 assessment of antibacterial activity (time kill in suspension); format: cell-based; settings: for percent reduction in bacteria: 1% dispersion in water; for percent reduction of the test bacteria: pH 6, 30 seconds contact time
Procedure: A 1:99 mixture of the solid compound described in Experiment 1 was made by adding 0.2 gm. to 19.8 ml. of sterile water. […]. One ml of the inoculated substance was harvested at each contact time and neutralized in 9 ml of D/E broth. Enumerations were performed for each time point using standard microbiologic plating methods. At time zero, the percent reduction in bacteria was already 99.9997%, the limit of detection. The percent reduction at 30 seconds, 2 minutes and 10 minutes were also 99.9997%. When 0.1 ml of the 1% dispersion was diluted with 9.9 ml of sterile water to prepare a 0.1% dispersion and the same tests run, the percent reduction in bacteria count was 99.9997% at the 30-second contact time.

[5] = tested on: Escherichia coli 8739; assay: ASTM E2315 antibacterial activity; format: cell-based; settings: 1% dispersion, 30 seconds contact time
Procedure: (§1) A 1:99 mixture of the solid compound described in Experiment 1 was made by adding 0.2 gm. to 19.8 ml. of sterile water. Following ASTM International Method E2315 for assessment of antibacterial activity, 10 ml of this uniform mixture was aliquoted into a sterile vessel to produce a 1% dispersion that was then inoculated with the Gram-positive bacterium Staphylococcus aureus ATCC 6538 at 25° C. for a target concentration of 1×10^6 CFU (cells)/ml. One ml of the inoculated substance was harvested at each contact time and neutralized in 9 ml of D/E broth. Enumerations were performed for each time point using standard microbiologic plating methods. At time zero, the percent reduction in bacteria was already 99.9997%, the limit of detection. The percent reduction at 30 seconds, 2 minutes and 10 minutes were also 99.9997%. When 0.1 ml of the 1% dispersion was diluted with 9.9 ml of sterile water to prepare a 0.1% dispersion and the same tests run, the percent reduction in bacteria count was 99.9997% at the 30-second contact time.
(§2) The 1% dispersion described in Example 3 was contacted with the Gram-negative bacteria Escherichia coli 8739 and Pseudomonas aeruginosa 15442 each in the manner described in Example 2. After 30 seconds of contact time, the reductions of the test bacteria were 99.9996% and 99.995% respectively.

[6] = tested on: Pseudomonas aeruginosa 15442; assay: ASTM E2315 antibacterial activity; format: cell-based; settings: 1% dispersion, 30 seconds contact time
Procedure: as §1, §2

[7] = tested on: Enterococcus faecalis 29212; assay: ASTM E2315 antibacterial activity; format: cell-based; settings: 1% dispersion, 30 second contact time
Procedure: as §1
The same dispersion used in Examples 4 and 5 was tested against Gram-positive Enterococcus faecalis 29212 in the manner described in Example 2. After 30 second contact time, the bacterial reduction was >99.9986%.

[8] = tested on: Salmonella enterica ATCC 10708; assay: AOAC International Use-Dilution Method (hard surface disinfectant, steel penicylinders); format: cell-based; settings: 2% dispersion, ten minutes exposure
[9] = pH of water dispersion; format: physicochemical
Procedure: (§3) A slurry of white solid formed immediately. About 200 ml of distilled water were added with stirring to obtain a clear solution with a pH of 8. […] It melted sharply at 62° C.
After standing for 4 hours, a white, opaque, uniform thin liquid was obtained. The pH of the liquid was 6. The bottle was then shaken vigorously for several minutes. The contents of the bottle changed to a foamy, motionless, thick gel that totally filled the bottle. After standing overnight, the gel remained the same, still filling the bottle. But after standing for 48 hours, the gel reverted to the original thin liquid. Upon shaking the bottle again, the thick gel reappeared.

[10] = Stability of solid and of water dispersion on storage; format: physicochemical; settings: no emulsifier or surfactant
Description: The compounds are believed to form as the result of hydrogen bonding wherein a hydrogen atom covalently bonded to nitrogen becomes attracted to the oxygen of the carboxylic acid forming a hydrogen bond.
Since the compounds are stable at ambient temperatures and pressures and exist as non-hygroscopic crystalline solids, they may be transported as 100% active ingredients to their point of use. […] The compounds can be stored and shipped in any type of container, including plastic, paper or cloth bags, metal, glass or plastic. In an embodiment, the compounds can be transported in such containers to the point of use by mixing with water to produce disinfecting compositions.
When the solid compound is mixed with water, it completely distributes in the water to produce a uniform composition in the absence of any emulsifier, surfactant, soap, wetting agent, dispersing agent or suspending agent. The solid compound, while being water-insoluble, remains stable as a dispersion indefinitely.
as §3

[11] = tested on: S. aureous; assay: AOAC International Use-Dilution Method, comparison test; settings: 2.5% solution
Procedure: In this test, 60 sterilized steel penicylinders are inoculated by soaking in a test culture of the bacteria. The cylinders are then dried in an incubator. After drying, they are submerged in test tubes containing the test substance and allowed to incubate for ten minutes. They are then aseptically transferred to individual tubes containing neutralization/growth medium. The neutralization/growth medium tubes are shaken and incubated. After the incubation period, tubes are qualitatively assessed for growth of the test organism.
AOAC has defined the passing criteria for this test as a disinfectant to be less than or equal to 3 positive carriers out of 60 when testing against S. aureous.

Q: For CCCCCCCCCC(=O)O [capric acid], which “antimicrobial activity among fatty acids tested” value [1] is on record?
A: highest activity

Q: What about the “antimicrobial activity among fatty acids tested” value [2] of the same compound?
A: highest activity

Q: What about the “antimicrobial activity among fatty acids tested” value [3] of the same compound?
A: highest activity

Q: For ammonium di-nonanoate [Example 1], which “percent reduction in bacteria count” value ([4]; 0.1% dispersion in water, 30-second contact time) is on record?
A: 99.9997%

Q: What about the “percent reduction in bacteria” value ([4]; 30 seconds contact time) of the same compound?
A: 99.9997%

Q: What about the “percent reduction in bacteria” value ([4]; 2 minutes contact time) of the same compound?
A: 99.9997%

Q: What about the “percent reduction in bacteria” value ([4]; 10 minutes contact time) of the same compound?
A: 99.9997%

Q: What about the “percent reduction in bacteria” value ([4]; time zero, 25° C., 1×10^6 CFU/ml, 99.9997% = limit of detection) of the same compound?
A: 99.9997%

Q: And the “percent reduction of the test bacteria” value ([4]; 1% dispersion of solid stored in a plastic container for over 5 years)?
A: > 99.9997%

Q: And the “reduction of the test bacteria” value [5]?
A: 99.9996%

Q: What about the “reduction of the test bacteria” value [6] of the same compound?
A: 99.995%

Q: What about the bacterial reduction [7] of the same compound?
A: > 99.9986%

Q: And the “AOAC disinfectant test result” value [8]?
A: pass

Q: What about the “number of positive test tubes (growth) out of 60 carriers” value ([8]; pass = less than or equal to 1 positive carrier out of 60) of the same compound?
A: 0

Q: And the “pH of water dispersion” value ([9]; 1% dispersion in distilled water)?
A: 6

Q: And the “pH of water dispersion” value ([9]; 10% dispersion in distilled water)?
A: 6

Q: And the “pH of water dispersion” value ([9]; concentration not given)?
A: 6

Q: What about the “stability of water dispersion on storage” value [10] of the same compound?
A: remained unchanged in appearance after months of storage

Q: For ammonium di-octanoate [Example 10], which “percent reduction of the test bacteria” value ([4]; 0.5% dispersion in water) is on record?
A: > 99.988%

Q: And the “pH of water dispersion” value ([9]; 0.5% dispersion in distilled water)?
A: 6

Q: For CCCCCCCCC(=O)O.N [ammonium nonanoate], which “AOAC disinfectant test result” value [11] is on record?
A: no disinfectant properties

Q: What about the “number of confirmed positive test tubes out of 60 carriers” value ([11]; pass = less than or equal to 3 positive carriers out of 60) of the same compound?
A: 60
